According to the supplement of paper PMC10627819:

Tests used:
S. pneumoniae D39V [1] = assay: fitness (endpoint OD595 vs no drug) (fraction); higher = more growth
Method in brief: (§1)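 Fitness is computed from the optical density at which cultures reach stationary phase, divided by the robust mean of no-drug control wells. Any value above 1 is set to 1. Cultures started at OD595 0.01 in 384-well plates with TSB, LB Lennox or CY at 37 °C, and OD595 was read every 30 min for 14 h against a first-reading background.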

S. aureus Newman [2] = assay: as above
Method in brief: as §1

S. aureus DSM 20231 [3] = assay: as above
Method in brief: as §1

B. subtilis 168 [4] = assay: as above
Method in brief: as §1

S. pneumoniae D39V [5] = assay: Bliss interaction score (quartile over a dose matrix) (fitness difference); higher = more antagonism (negative = synergy)
Method in brief: (§2)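 Each plate was normalised to the robust mean of its own no-drug wells, using OD595 at entry into stationary phase, with values capped at 1. This normalised growth is the fitness value. The Bliss score is the difference between observed and product-expected fitness, with single-drug fitness inferred from the combination data and quartiles taken over technical, biological and donor/recipient replicates.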

S. aureus Newman [6] = assay: as above
Method in brief: as §2

S. aureus DSM 20231 [7] = assay: as above
Method in brief: as §2

B. subtilis 168 [8] = assay: as above
Method in brief: as §2
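For Bliss interaction score (quartile over a dose matrix) in this document: first quartile when negative (synergy) and third quartile when positive (antagonism).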

CCCCCCCCCC(=O)N[C@@H](Cc1c[nH]c2ccccc12)C(=O)N[C@H](CC(N)=O)C(=O)N[C@@H](CC(=O)O)C(=O)N[C@@H]1C(=O)NCC(=O)N[C@@H](CCCN)C(=O)N[C@@H](CC(=O)O)C(=O)N[C@H](C)C(=O)N[C@@H](CC(=O)O)C(=O)NCC(=O)N[C@H](CO)C(=O)N[C@@H]([C@H](C)CC(=O)O)C(=O)N[C@@H](CC(=O)c2ccccc2N)C(=O)O[C@@H]1C [Daptomycin] + C[C@@H]1O[C@@H]1P(=O)(O)O [Fosfomycin]
fitness
Details	first compound 0.125 µg/mL	first compound 0.25 µg/mL	first compound 0.5 µg/mL	first compound 1 µg/mL	first compound 2 µg/mL	first compound 4 µg/mL
B. subtilis 168 [4], partner 1.562 µg/mL	0.686	0.728	0.771	–	–	–
B. subtilis 168 [4], partner 3.124 µg/mL	0.642	0.645	0.625	–	–	–
B. subtilis 168 [4], partner 6.248 µg/mL	0.492	0.468	0.511	–	–	–
S. aureus DSM 20231 [3], partner 0.781 µg/mL	0.742	0.659	0.818	0.879	0.778	–
S. aureus DSM 20231 [3], partner 1.562 µg/mL	0.589	0.586	0.621	0.609	0.601	–
S. aureus DSM 20231 [3], partner 3.124 µg/mL	0.498	0.496	0.505	0.495	0.508	–
S. aureus Newman [2], partner 0.781 µg/mL	0.657	0.674	0.703	–	–	–
S. aureus Newman [2], partner 1.562 µg/mL	0.536	0.534	0.534	–	–	–
S. aureus Newman [2], partner 3.124 µg/mL	0.233	0.172	0.16	–	–	–
S. pneumoniae D39V [1], partner 1.25 µg/mL	–	–	–	0.93	0.919	–
S. pneumoniae D39V [1], partner 2.5 µg/mL	–	–	–	0.844	0.845	0.767
S. pneumoniae D39V [1], partner 5 µg/mL	–	–	–	0.624	0.64	0.597

B. subtilis 168 [4], first compound 1 µg/mL, one replicate
Details	fitness
partner 1.562 µg/mL	0.7
partner 3.124 µg/mL	0.501
partner 6.248 µg/mL	0.305

Details	Bliss interaction score
B. subtilis 168 [8]	0.063
S. aureus DSM 20231 [7]	-0.0509
S. aureus Newman [6]	0.0452
S. pneumoniae D39V [5]	0.0735
